Assay results from publication PMC5761851, “Application of a phenotypic drug discovery strategy to identify biological and chemical starting points for inhibition of TSLP production in lung epithelial cells” (PLoS ONE, 2018).

Experiments:
Assay in all cases: kinase selectivity panel
Type in all cases: biochemical
TrkB = target: T1, TrkB (Homo sapiens, UniProt Q16620); settings: for remaining activity at 10 µM: read-out: percentage of control activity (POC), TrkB
T1 construct: purchased Eurofins Pharma Discovery Services (KinaseProfiler; Cerep BioPrint panel)
T1 sequence (Q16620 32-822): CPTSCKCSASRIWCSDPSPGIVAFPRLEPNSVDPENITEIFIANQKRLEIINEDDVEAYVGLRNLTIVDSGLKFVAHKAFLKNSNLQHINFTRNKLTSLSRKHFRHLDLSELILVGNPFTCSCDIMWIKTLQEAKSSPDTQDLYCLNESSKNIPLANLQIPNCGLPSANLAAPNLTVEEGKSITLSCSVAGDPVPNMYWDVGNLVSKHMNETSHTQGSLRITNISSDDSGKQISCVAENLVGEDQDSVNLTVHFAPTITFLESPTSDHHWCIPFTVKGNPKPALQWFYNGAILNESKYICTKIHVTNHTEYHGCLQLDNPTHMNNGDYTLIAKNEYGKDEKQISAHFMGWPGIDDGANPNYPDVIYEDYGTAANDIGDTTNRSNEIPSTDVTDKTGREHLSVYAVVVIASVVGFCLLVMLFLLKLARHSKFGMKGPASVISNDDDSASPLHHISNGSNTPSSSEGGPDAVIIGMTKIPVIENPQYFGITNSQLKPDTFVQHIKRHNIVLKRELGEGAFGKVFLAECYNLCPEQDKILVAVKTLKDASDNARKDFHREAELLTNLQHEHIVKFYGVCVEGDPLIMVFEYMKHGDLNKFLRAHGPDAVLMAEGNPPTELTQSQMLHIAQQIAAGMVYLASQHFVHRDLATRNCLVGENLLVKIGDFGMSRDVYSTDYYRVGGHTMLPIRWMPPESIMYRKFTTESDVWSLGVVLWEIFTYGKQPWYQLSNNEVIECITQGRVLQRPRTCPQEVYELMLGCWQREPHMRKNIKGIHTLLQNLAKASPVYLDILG
In short: (§1)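 IC50 values derive from 9 duplicate concentrations, run only for activities picked after an initial 10 μM duplicate screen across 125 representative kinases.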

ASK1 = target: T2, ASK1 (Homo sapiens, UniProt Q99683); settings: read-out: percentage of control activity (POC), ASK1
T2 construct: purchased Eurofins Pharma Discovery Services (KinaseProfiler; Cerep BioPrint panel)
T2 sequence (Q99683 1-1374): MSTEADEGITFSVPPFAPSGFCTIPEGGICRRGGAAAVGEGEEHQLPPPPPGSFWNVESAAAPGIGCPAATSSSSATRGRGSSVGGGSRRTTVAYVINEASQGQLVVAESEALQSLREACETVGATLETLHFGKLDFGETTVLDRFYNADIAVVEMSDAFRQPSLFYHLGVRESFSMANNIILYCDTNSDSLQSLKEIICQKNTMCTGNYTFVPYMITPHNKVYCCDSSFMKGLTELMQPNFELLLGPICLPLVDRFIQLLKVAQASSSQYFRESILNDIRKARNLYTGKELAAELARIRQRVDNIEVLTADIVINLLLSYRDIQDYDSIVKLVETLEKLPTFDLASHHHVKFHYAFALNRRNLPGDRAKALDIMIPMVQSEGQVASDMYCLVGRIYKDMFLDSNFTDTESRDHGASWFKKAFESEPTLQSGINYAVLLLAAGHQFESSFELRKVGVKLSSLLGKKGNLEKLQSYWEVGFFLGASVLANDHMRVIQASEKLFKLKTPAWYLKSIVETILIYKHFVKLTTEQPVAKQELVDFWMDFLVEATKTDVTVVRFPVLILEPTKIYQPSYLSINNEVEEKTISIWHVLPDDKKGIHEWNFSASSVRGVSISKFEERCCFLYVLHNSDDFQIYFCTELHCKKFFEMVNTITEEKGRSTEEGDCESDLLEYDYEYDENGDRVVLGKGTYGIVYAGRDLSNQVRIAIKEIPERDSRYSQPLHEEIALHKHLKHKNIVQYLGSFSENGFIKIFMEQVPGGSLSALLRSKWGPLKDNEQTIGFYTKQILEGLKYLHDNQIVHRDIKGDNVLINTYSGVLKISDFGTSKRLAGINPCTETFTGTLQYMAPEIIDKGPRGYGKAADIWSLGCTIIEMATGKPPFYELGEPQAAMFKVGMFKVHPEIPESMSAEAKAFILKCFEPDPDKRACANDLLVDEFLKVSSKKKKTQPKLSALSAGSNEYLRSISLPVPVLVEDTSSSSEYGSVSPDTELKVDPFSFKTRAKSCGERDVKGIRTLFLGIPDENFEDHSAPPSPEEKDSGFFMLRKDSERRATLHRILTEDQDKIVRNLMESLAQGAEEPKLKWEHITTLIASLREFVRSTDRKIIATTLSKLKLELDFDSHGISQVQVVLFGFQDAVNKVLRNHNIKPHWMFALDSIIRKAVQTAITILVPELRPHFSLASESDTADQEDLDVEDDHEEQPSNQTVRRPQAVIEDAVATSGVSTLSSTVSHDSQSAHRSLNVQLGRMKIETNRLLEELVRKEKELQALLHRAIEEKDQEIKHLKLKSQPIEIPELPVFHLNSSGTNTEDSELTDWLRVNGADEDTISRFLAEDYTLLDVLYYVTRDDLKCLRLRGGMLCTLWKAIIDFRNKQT
In short: as §1

Rsk4 = target: T3, Rsk4 (Homo sapiens, UniProt Q9UK32); settings: read-out: percentage of control activity (POC), Rsk4
T3 construct: purchased Eurofins Pharma Discovery Services (KinaseProfiler; Cerep BioPrint panel)
T3 sequence (Q9UK32 whole entry): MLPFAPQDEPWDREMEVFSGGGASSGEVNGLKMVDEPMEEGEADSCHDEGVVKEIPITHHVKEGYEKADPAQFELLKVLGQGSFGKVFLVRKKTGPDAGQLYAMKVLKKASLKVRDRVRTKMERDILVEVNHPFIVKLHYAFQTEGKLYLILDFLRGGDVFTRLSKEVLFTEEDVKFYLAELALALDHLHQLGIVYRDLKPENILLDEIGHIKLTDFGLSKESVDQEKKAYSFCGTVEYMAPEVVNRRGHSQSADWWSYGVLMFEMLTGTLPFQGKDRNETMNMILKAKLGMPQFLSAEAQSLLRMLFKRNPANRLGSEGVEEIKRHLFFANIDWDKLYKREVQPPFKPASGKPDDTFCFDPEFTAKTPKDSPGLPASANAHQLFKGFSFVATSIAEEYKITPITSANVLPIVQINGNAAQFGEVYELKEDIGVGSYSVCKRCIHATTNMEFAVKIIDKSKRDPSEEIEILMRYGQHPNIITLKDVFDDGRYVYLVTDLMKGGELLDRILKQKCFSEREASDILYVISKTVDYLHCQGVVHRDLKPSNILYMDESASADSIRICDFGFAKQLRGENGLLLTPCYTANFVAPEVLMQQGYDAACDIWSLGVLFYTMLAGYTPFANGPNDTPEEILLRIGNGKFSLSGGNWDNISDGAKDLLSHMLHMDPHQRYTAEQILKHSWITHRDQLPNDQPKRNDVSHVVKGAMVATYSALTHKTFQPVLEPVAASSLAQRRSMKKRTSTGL
In short: as §1

IKKα = target: T4, IKKα (Homo sapiens, UniProt O15111); settings: read-out: percentage of control activity (POC), IKKα
T4 construct: purchased Eurofins Pharma Discovery Services (KinaseProfiler; Cerep BioPrint panel)
T4 sequence (O15111 1-745): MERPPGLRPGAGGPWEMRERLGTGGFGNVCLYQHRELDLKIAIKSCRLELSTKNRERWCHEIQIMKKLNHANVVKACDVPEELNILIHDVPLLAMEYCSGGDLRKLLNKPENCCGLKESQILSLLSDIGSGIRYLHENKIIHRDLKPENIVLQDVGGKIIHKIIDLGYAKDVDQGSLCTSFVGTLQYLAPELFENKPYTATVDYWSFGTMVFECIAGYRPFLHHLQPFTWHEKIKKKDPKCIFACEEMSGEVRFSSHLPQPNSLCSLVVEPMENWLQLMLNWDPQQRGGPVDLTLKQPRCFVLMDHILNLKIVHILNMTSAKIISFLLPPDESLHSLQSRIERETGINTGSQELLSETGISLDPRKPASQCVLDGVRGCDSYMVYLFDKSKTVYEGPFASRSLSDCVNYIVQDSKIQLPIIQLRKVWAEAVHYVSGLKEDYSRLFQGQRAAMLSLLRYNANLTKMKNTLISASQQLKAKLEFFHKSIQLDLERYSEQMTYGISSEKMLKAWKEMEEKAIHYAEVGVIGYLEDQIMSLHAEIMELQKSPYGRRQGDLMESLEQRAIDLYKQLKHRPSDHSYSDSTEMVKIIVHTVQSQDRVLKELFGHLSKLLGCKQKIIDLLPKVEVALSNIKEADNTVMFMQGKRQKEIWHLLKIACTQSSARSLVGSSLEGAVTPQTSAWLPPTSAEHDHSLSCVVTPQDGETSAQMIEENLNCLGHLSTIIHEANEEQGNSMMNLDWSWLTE
In short: as §1

JNK3 = target: T5, JNK3 (Homo sapiens, UniProt P53779); settings: read-out: percentage of control activity (POC), JNK3
T5 construct: purchased Eurofins Pharma Discovery Services (KinaseProfiler; Cerep BioPrint panel)
T5 sequence (P53779 whole entry): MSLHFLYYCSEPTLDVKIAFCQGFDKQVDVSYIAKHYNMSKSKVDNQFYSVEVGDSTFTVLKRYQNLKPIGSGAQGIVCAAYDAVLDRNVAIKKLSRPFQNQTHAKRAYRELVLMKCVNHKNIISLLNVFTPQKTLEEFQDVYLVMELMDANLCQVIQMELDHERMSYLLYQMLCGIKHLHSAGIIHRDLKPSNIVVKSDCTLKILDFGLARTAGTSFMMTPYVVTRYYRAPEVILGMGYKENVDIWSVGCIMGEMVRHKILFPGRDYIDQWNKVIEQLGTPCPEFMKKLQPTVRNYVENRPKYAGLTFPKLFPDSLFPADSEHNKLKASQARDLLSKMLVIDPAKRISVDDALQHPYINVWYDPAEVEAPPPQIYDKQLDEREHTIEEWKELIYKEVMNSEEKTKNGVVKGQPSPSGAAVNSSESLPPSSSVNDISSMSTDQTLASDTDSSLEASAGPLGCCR
In short: as §1

inhibition at 10 µM (TrkB) | remaining activity at 10 µM (TrkB) | remaining activity at 10 µM (ASK1) | remaining activity at 10 µM (Rsk4) | remaining activity at 10 µM (IKKα) | remaining activity at 10 µM (JNK3) | Compound
75% | 25% | 100% | 102% | 102% | 97% | CC(C)(C)N1CCC(c2cc(-c3ccc(F)cc3Cl)c3cc[n+]([O-])c(-c4c(Cl)cccc4Cl)c3n2)CC1 [compound 2]
 | 84% | 87% | 131% | 135% | 75% | COc1c(NC(=O)c2ccc(C)c(-c3nnc4c(NCC(C)(C)C)nccn34)c2)cc(C(C)(C)C)cc1NS(C)(=O)=O [compound 7, reference compound]

The next lines start with the compound.

Compound | inhibition at 10 µM (TrkB) | remaining activity at 10 µM (TrkB) | remaining activity at 10 µM (ASK1) | remaining activity at 10 µM (Rsk4) | remaining activity at 10 µM (IKKα) | remaining activity at 10 µM (JNK3)
Cc1ccc(C(=O)NCC2CC2)cc1-c1ccc2c(c1)NC(=O)C21CCCC1 [compound 3] |  | 96% | 97% | 103% | 101% | 65%
Cn1cc(-c2cccc(-c3nc(C(=O)NC4C5CC6CC4CC(O)(C6)C5)c(N)nc3N)c2)cn1 (centres unmarked) [compound 4] |  | 57% | 92% | 110% | 100% | 72%
CS(=O)(=O)N1CCN(c2ccc(Nc3ncc(C(N)=O)c(NC4CC4)n3)cc2)CC1 [compound 5] |  | 3% | 0% | 2% | 1% | -4%
